The term ED50 denotes the dose at which the effect has come halfway, by size or by number of responders. One may read the IC50 as the concentration at which inhibition is half-maximal. Read a low IC50 as greater potency in that assay.

Structures can show the parent of a compound that is named as a salt.

The subject of one test is pentetrazole seizures. As to the kind of experiment: Anticonvulsant activity: protection against pentetrazole seizures (EVERETT and RICHARDS). Format: in vivo, mice. As to conditions: pentetrazole 125 mg/kg subcutaneously, no tonic seizures during 30 minutes, 95% confidence limits (FINNEY); for ED50: Mus musculus, po, 0.5 h, read-out: ED50 (Confidence interval). As to the method: The protective effect produced by the compound of the inventon against pentetrazole seizures was studied.
This test was carried out according to the method of EVERETT and RICHARDS (J. Pharm. Exp. Ther., 1944, 81, 402-407). The test products and reference products were administered orally (suspended in gum arabic) to batches of 10 mice, 30 minutes […] pentetrazole (125 mg/kg subcutaneously).

The test system of the next test is food neophobia. As to the kind of experiment: Anxiolytic activity: food neophobia test. As to conditions: 30 minutes after treatment. Format: in vivo, mice. As to the method:
This activity was studied by the food neophobia test. In effect, a pronounced inhibition of the feed intake can be obtained in mice when both the food and the enclosure are unfamiliar to the aninal (R. J. STEPHENS, Brit. J. Pharmacol., 1973, 47, 145 P). All anxiolytics specifically counteract neophobia phenomena.
30 minutes after oral or subcutaneous treatment with the test derivatives and the reference products, the mice, fasted for 16 to 20 hours, are isolated in a translucent enclosure and placed in the presence of an unfamiliar food for 5 minutes.
The amounts consumed are evaluated in proportion to the weight of the animal.
In each batch, the mean consumption and also the percentage variation relative to the control batch are calculated in this manner.

A further test concerns the target benzodiazepine receptors. As to the kind of experiment: Affinity for benzodiazepine receptors: inhibition of specific binding of [3H]flunitrazepam (WASTEK et al., modified). Details: species or system rats. As to conditions: 50% inhibition of specific binding of [3H]flunitrazepam, rat brain membranes. As to the method: This study was performed according to the technique of WASTEK et al., (Europ. J. Pharmacol., 1978, 50, 445-447) slightly modified.
Rats are sacrificed by decapitation, and the brain is removed, ground, suspended, centrifuged and resuspended.
Samples of this suspension are incubated in the presence of [^3 H]flunitrazepam, alone or in the presence of increasing concentrations of the test compound.
The radioactivity bound on the membranes is then determined by liquid scintillation.
The concentration of product which 50% inhibits the specific binding of [^3 H]flunitrazepam (IC50) is thereby determined.

Take `CCOC(=O)c1cnc2ccc(Cl)cc2c1NCC(=O)N(CC)CC` [1 maleate]: the “ED50 (Confidence interval)” value in the test on pentetrazole seizures (oral, 30 min) is reported as 27 (18-36) mg/kg.
As for `CNC1=Nc2ccc(Cl)cc2C(c2ccccc2)=[N+]([O-])C1` [Chlordiazepoxide, chlordiazepoxide, reference compound], in the test on food neophobia (dose 16 mg/kg, PO), the “Percentage increase (food consumption relative to control batch)” value stood at 73%. Moreover, in the test with pentetrazole seizures, the ED50 was determined as 7 mg/kg. Moreover, the half-inhibitory concentration (IC50) at benzodiazepine receptors amounted to 950 nM.
In the case of `CCOC(=O)c1cnc2ccccc2c1NCC(=O)N(CC)CC` [Derivative 10, 2-(3-Ethoxycarbonyl-4-quinolyl)amino-N,N-diethylacetamide], in the test on pentetrazole seizures, the 50% effective dose (ED50) stood at 68 mg/kg. In addition, at benzodiazepine receptors, the IC50 is 1560 nM.
Turning to `CCCN(CCC)C(=O)CNc1c(C(=O)OCC)cnc2ccc(Cl)cc12` [Derivative 12, 2-(3-Ethoxycarbonyl-6-chloro-4-quinolyl)amino-N,N-dipropylacetamide], in the test with food neophobia (dose 32 mg/kg, PO), the “Percentage increase (food consumption relative to control batch)” value worked out at 75%. In addition, in the test on pentetrazole seizures, the ED50 came out at 10 mg/kg. This molecule yielded an IC50 at benzodiazepine receptors of 16 nM.
Turning to `CCCN(CCC)C(=O)CNc1c(C(=O)OCC)cnc2ccc(C)cc12.Cl` [Derivative 13, 2-(3-Ethoxycarbonyl-6-methyl-4-quinolyl)amino-N,N-dipropylacetamide hydrochloride], the “Percentage increase (food consumption relative to control batch)” value with food neophobia (dose 16 mg/kg, PO) was determined as 75%. Besides, in the test with pentetrazole seizures, the median effective dose (ED50) came out at 25 mg/kg. This molecule had a half-maximal inhibitory concentration (IC50) at benzodiazepine receptors of 25 nM.
Regarding `CCCN(CCC)C(=O)CNc1c(C(=O)OCC)cnc2ccc(Br)cc12` [Derivative 17, 2-(3-Ethoxycarbonyl-6-bromo-4-quinolyl)amino-N,N-dipropylacetamide], the “Percentage increase (food consumption relative to control batch)” value in the test with food neophobia (dose 32 mg/kg, SC) amounted to 75%. In the test on pentetrazole seizures, the ED50 came to 18 mg/kg. The IC50 on benzodiazepine receptors came out at 8 nM.
Turning to `CCOC(=O)c1cnc2ccc(Cl)cc2c1NCC(=O)N1CCCCC1` [Derivative 25, 1-{2-[(3-Ethoxycarbonyl-6-chloro-4-quinolyl)amino]acetyl}piperidine], the ED50 in the test with pentetrazole seizures was 33 mg/kg. The molecule further yielded a concentration for half-maximal inhibition (IC50) on benzodiazepine receptors of 148 nM.
On the same counts, the results for `CCOC(=O)c1cnc2ccc(Cl)cc2c1NCC(=O)N1CCCC1` [Derivative 26, 1-{2-[(3-Ethoxycarbonyl-6-chloro-4-quinolyl)amino]acetyl}pyrrolidine] are 50 mg/kg and 333 nM.
The like results for `CCOC(=O)c1cnc2ccc(Cl)cc2c1NCC(=O)N(C)C` [Derivative 29, 2-(3-Ethoxycarbonyl-6-chloro-4-quinolyl)amino-N,N-dimethylacetamide] were, in that order, 38 mg/kg and 687 nM.
`CCCN(C(=O)CNc1c(C(=O)OCC)cnc2ccc(Cl)cc12)c1ccccc1` [Derivative 35, 2-(3-Ethoxycarbonyl-6-chloro-4-quinolyl)amino-N-propyl-N-phenylacetamide] returned an IC50 on benzodiazepine receptors of 27 nM.
As to `C#CCN(C)C(=O)CNc1c(C(=O)OCC)cnc2ccc(Cl)cc12` [Derivative 36, 2-(3-Ethoxycarbonyl-6-chloro-4-quinolyl)amino-N-methyl-N-(2-propynyl)acetamide], at benzodiazepine receptors, the concentration for half-maximal inhibition (IC50) was 99 nM.
For `CCOC(=O)c1cnc2ccc(Cl)cc2c1NCC(=O)NC` [Derivative 41, 2-(3-Ethoxycarbonyl-6-chloro-4-quinolyl)amino-N-methylacetamide], the median effective dose (ED50) in the test on pentetrazole seizures worked out at 46 mg/kg. At benzodiazepine receptors, the IC50 amounted to 440 nM.
`CCN(CC)C(=O)CNc1c(C(=O)O)cnc2ccc(C)cc12` [Derivative 44, 2-(3-Carboxy-6-methyl-4-quinolyl)amino-N,N-diethylacetamide]: in the test on food neophobia (dose 32 mg/kg, SC), the “Percentage increase (food consumption relative to control batch)” value turned out to be 50%. This molecule had an IC50 on benzodiazepine receptors of 46 nM.
Consider `O=C(O)c1cnc2ccc(Cl)cc2c1NCC(=O)N1CCCCCC1` [Derivative 45, 1-{2-[(3-Carboxy-6-chloro-4-quinolyl)amino]acetyl}-homopiperidine], for which the IC50 at benzodiazepine receptors is 7 nM.
Consider `CCCN(CCC)C(=O)CNc1c(C(=O)O)cnc2ccc(Cl)cc12` [Derivative 46, 2-(3-Carboxy-6-chloro-4-quinolyl)amino-N,N-dipropylacetamide], for which the “Percentage increase (food consumption relative to control batch)” value in the test on food neophobia (dose 16 mg/kg, SC) is on record as 75%. This molecule also showed a half-maximal inhibitory concentration (IC50) at benzodiazepine receptors of 1 nM.
The molecule `CCCN(CCC)C(=O)CNc1c(C(=O)O)cnc2ccc(Br)cc12` [Derivative 47, 2-(3-Carboxy-6-bromo-4-quinolyl)amino-N,N-dipropylacetamide monohydrate] registered an IC50 at benzodiazepine receptors of 1 nM.
At benzodiazepine receptors, `CCN(CC)C(=O)CNc1c(C(=O)OC(C)C)cnc2ccc(Cl)cc12` [Derivative 48, 2-(3-Isopropyloxycarbonyl-6-chloro-4-quinolyl)amino-N,N-diethylacetamide] showed a 50% inhibitory concentration (IC50) of 69 nM.
With `CCCCOC(=O)c1cnc2ccc(Cl)cc2c1NCC(=O)N(CC)CC` [Derivative 49, 2-(3-Butoxycarbonyl-6-chloro-4-quinolyl)amino-N,N-diethylacetamide], the 50% effective dose (ED50) with pentetrazole seizures was found to be 54 mg/kg. On benzodiazepine receptors, this molecule came in with an IC50 of 61 nM.
On benzodiazepine receptors, `CCN(CC)C(=O)CNc1c(C(=O)OCc2ccccc2)cnc2ccc(Cl)cc12` [Derivative 50, 2-(3-Benzyloxycarbonyl-6-chloro-4-quinolyl)amino-N,N-diethylacetamide] had a half-maximal inhibitory concentration (IC50) of 27 nM.
Take `CCCN(CCC)C(=O)CN(C)c1c(C(=O)OCc2ccccc2)cnc2ccc(Cl)cc12` [Derivative 52, [N'-(3-Benzyloxycarbonyl-6-chloro-4-quinolyl)-N'-methylamino]-N,N-dipropylacetamide]: the ED50 with pentetrazole seizures worked out at 31 mg/kg. The molecule further returned an IC50 on benzodiazepine receptors of 727 nM.
Molecule `CCCN(CCC)C(=O)CN(C)c1c(C(=O)OCc2ccccc2)cnc2ccc(C)cc12` [Derivative 53, [N'-(3-Benzyloxycarbonyl-6-methyl-4-quinolyl)-N'-methylamino]-N,N-dipropylacetamide] had a half-inhibitory concentration (IC50) on benzodiazepine receptors of 638 nM.
Same read-out and setting: the figure for `CCCNC(=O)c1cnc2ccc(Cl)cc2c1NCC(=O)N(CC)CC` [Derivative 55, 2-[3-(N-Propylcarbamoyl)-6-chloro-4-quinolyl]amino-N,N-diethylacetamide] is 150 nM.
On the same count and under the same terms, the figure for `CCN(CC)C(=O)CNc1c(C(=O)Nc2ccccc2)cnc2ccc(Cl)cc12` [Derivative 56, 2-[3-(N-Phenylcarbamoyl)-6-chloro-4-quinolyl]amino-N,N-diethylacetamide] is 136 nM.
Take `CCOC(=O)c1cnc2ccc(Cl)cc2c1N(C)CC(=O)N(CC)CC` [Derivative 58, [N'-(3-Ethoxycarbonyl-6-chloro-4-quinolyl)-N'-methylamino]-N,N-diethylacetamide]: the “Percentage increase (food consumption relative to control batch)” value in the test on food neophobia (dose 64 mg/kg, SC) turned out to be 80%. Moreover, the ED50 in the test on pentetrazole seizures was found to be 44 mg/kg.
Regarding `CCCN(CCC)C(=O)CN(C)c1c(C(=O)OCC)cnc2ccc(Cl)cc12` [Derivative 59, [N'-(3-Ethoxycarbonyl-6-chloro-4-quinolyl)-N'-methylamino]-N,N-dipropylacetamide], the “Percentage increase (food consumption relative to control batch)” value in the test with food neophobia (dose 32 mg/kg, PO) is 146%. The 50% effective dose (ED50) in the test with pentetrazole seizures turned out to be 16 mg/kg.
On to `CCCN(CCC)C(=O)CN(C)c1c(C(=O)OCC)cnc2ccc(C)cc12.Cl` [Derivative 61, [N'-(3-Ethoxycarbonyl-6-methyl-4-quinolyl)-N'-methylamino]-N,N-dipropylacetamide hydrochloride], for which the ED50 with pentetrazole seizures worked out at 24 mg/kg.
Consider `CCCN(CCC)C(=O)CN(C)c1c(C(=O)OCC)cnc2ccc(Br)cc12` [Derivative 63, [N'-(3-Ethoxycarbonyl-6-bromo-4-quinolyl)-N'-methylamino]-N,N-dipropylacetamide], for which the ED50 in the test on pentetrazole seizures was determined as 24 mg/kg.
On benzodiazepine receptors, `CCCN(CCC)C(=O)CNc1c(C(C)=O)cnc2ccc(C)cc12` [Derivative 66, 2-(3-Acetyl-6-methyl-4-quinolyl)amino-N,N-dipropylacetamide] had an IC50 of 92 nM.
In the case of `CN1C(=O)CN=C(c2ccccc2)c2cc(Cl)ccc21` [Diazepam, diazepam, reference compound], the “Percentage increase (food consumption relative to control batch)” value in the test with food neophobia (dose 4 mg/kg, PO) came out at 80%. Besides, the IC50 at benzodiazepine receptors amounted to 10 nM.
For the molecule `CCCC(C)(COC(N)=O)COC(N)=O` [Meprobamate, reference compound], in the test with food neophobia (dose 60 mg/kg, PO), the “Percentage increase (food consumption relative to control batch)” value stood at 95%. In addition, the median effective dose (ED50) in the test with pentetrazole seizures is 36 mg/kg.
`CCC1(c2ccccc2)C(=O)NC(=O)NC1=O` [Phenobarbital, reference compound]: the ED50 in the test with pentetrazole seizures amounted to 10 mg/kg.

The values are drawn from patent US4788188A, “Quinolylglycinamide derivatives, the process for preparation thereof and their therapeutic application as psychotropic drugs” (Sanofi (S.A.), priority 1985, dated 1988).
